Data on 19 molecules can be found in patent US8906904B2, “Alkoxy pyrazoles as soluble guanylate cyclase activators” (Boehringer Ingelheim International GmbH, priority 2012, dated 2014).

≈ marks a conversion by molar mass, not a printed value. Where only a bound is given, the exact number is not on record here.

What is called solubility is the dissolved amount per volume that the medium holds.

A short description of data set [1]: human liver microsome (HLM) metabolic stability assay. The format is in vitro ADME. Conditions: human liver microsomes; % hepatic blood flow calculated from t1/2. The essentials:
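Compounds at 1 uM incubated with human liver microsomes plus NADPH at 37° C., sampled at 0, 5, 15, 30 and 60 min into cold acetonitrile and quantified by LC/MS/MS. t½ from the slope of ln % remaining vs time; CLint, CLh and % Qh derived from it (n=1).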

Data set [2] can be described thus: Assessment of solubility (McIlvaine buffers, 24 h shake, UPLC-UV). The format is physicochemical. Conditions: kinetic from dmso stock. The essentials: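 Compounds from 10 mM DMSO stocks were shaken for 24 h at room temperature in McIlvaine buffers at pH 2.2, 4.5 and 6.8 (2.5% v/v DMSO final), then filtered. Filtrates were quantified by UPLC-UV at 254 nm against a 50:50 acetonitrile/water reference assumed fully dissolved, as a single determination.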

As to `CCOc1c(C(=O)O)cnn1-c1cccc(-c2cccc(C)c2OCc2ccc3c(c2C)CCN([C@@H]2CCOC2)CC3)n1` [Compound 227], the “HLM (% Qh)” value in data set [1] was 25 % Qh. The solubility at 24 h in data set [2] (pH 2.2, aqueous buffer) turned out to be 90 µg/mL (≈ 154 µM); in data set [2] (pH 4.5, aqueous buffer), 73 µg/mL (≈ 125 µM); in data set [2] (pH 6.8, aqueous buffer), 77 µg/mL (≈ 132 µM).

`COc1c(C(=O)O)cnn1-c1cccc(-c2cccc(C)c2OCc2ccc3c(c2F)CCN(C[C@@H]2COCCO2)C3)n1` [Compound 231]: the “HLM (% Qh)” value in data set [1] is on record as below 24 % Qh. For the same molecule, the solubility at 24 h in data set [2] (pH 2.2, aqueous buffer) was found to be 120 µg/mL (≈ 204 µM); in data set [2] (pH 4.5, aqueous buffer), 92 µg/mL (≈ 156 µM); in data set [2] (pH 6.8, aqueous buffer), 87 µg/mL (≈ 148 µM).

For the molecule `CCOc1c(C(=O)O)cnn1-c1cccc(-c2cccc(C)c2OCc2ccc3c(c2OC)CCN(C2COC2)C3)n1` [Compound 221], the “HLM (% Qh)” value in data set [1] is below 24 % Qh. In addition, the solubility at 24 h in data set [2] (pH 2.2, aqueous buffer) was 100 µg/mL (≈ 175 µM); in data set [2] (pH 4.5, aqueous buffer), 72 µg/mL (≈ 126 µM); in data set [2] (pH 6.8, aqueous buffer), 94 µg/mL (≈ 165 µM).

Take `COc1c(C(=O)O)cnn1-c1cccc(-c2cc(C)cc(C)c2OCc2ccc3c(c2C)CCN(C2CCOCC2)C3)n1` [Compound 180]: in data set [1], the “HLM (% Qh)” value is on record as below 24 % Qh. Also, the solubility at 24 h in data set [2] (pH 2.2, aqueous buffer) was 100 µg/mL (≈ 172 µM); in data set [2] (pH 4.5, aqueous buffer) it was 79 µg/mL (≈ 136 µM); in data set [2] (pH 6.8, aqueous buffer), 76 µg/mL (≈ 130 µM).

For the molecule `COc1ccc(OCc2ccc3c(c2C)CCN(C2CCOCC2)C3)c(-c2cccc(-n3ncc(C(=O)O)c3OC)n2)c1` [Compound 182], the “HLM (% Qh)” value in data set [1] is below 24 % Qh. For the same molecule, the solubility at 24 h in data set [2] (pH 2.2, aqueous buffer) is 110 µg/mL (≈ 188 µM); in data set [2] (pH 4.5, aqueous buffer), 81 µg/mL (≈ 139 µM); in data set [2] (pH 6.8, aqueous buffer), 81 µg/mL (≈ 139 µM).

For `CCOc1c(C(=O)O)cnn1-c1cccc(-c2cccc(C)c2OCc2ccc3c(c2C)CCN(CC2(F)COC2)C3)n1` [Compound 208], the “HLM (% Qh)” value in data set [1] is reported as below 24 % Qh. The solubility at 24 h in data set [2] (pH 2.2, aqueous buffer) turned out to be 82 µg/mL (≈ 140 µM); in data set [2] (pH 4.5, aqueous buffer), 47 µg/mL (≈ 80.1 µM); in data set [2] (pH 6.8, aqueous buffer), 57 µg/mL (≈ 97.2 µM).

`COc1c(C(=O)O)cnn1-c1cccc(-c2cccc(C)c2OCc2ccc3c(c2C)CCN(C[C@H]2COCCO2)CC3)n1` [Compound 203]: in data set [1], the “HLM (% Qh)” value was below 24 % Qh. Also, the solubility at 24 h in data set [2] (pH 2.2, aqueous buffer) is 81 µg/mL (≈ 135 µM); in data set [2] (pH 4.5, aqueous buffer), 70 µg/mL (≈ 117 µM); in data set [2] (pH 6.8, aqueous buffer), 72 µg/mL (≈ 120 µM).

For `COc1c(C(=O)O)cnn1-c1cccc(-c2cccc(C)c2OCc2cc(C)c3c(c2)CCN(C2CCCOC2)C3)n1` (stereo not shown) [Compound 237], the “HLM (% Qh)” value in data set [1] is below 24 % Qh. The solubility at 24 h in data set [2] (pH 2.2, aqueous buffer) stood at 94 µg/mL (≈ 165 µM); in data set [2] (pH 4.5, aqueous buffer) it was 55 µg/mL (≈ 96.7 µM); in data set [2] (pH 6.8, aqueous buffer) it was 52 µg/mL (≈ 91.4 µM).

Regarding `CCOc1c(C(=O)O)cnn1-c1cccc(-c2cccc(C)c2OCc2cc(C)c3c(c2)CCN(C(C)COC)C3)n1` (stereo not shown) [Compound 210], the “HLM (% Qh)” value in data set [1] is reported as below 24 % Qh. Besides, the solubility at 24 h was found to be 110 µg/mL (≈ 193 µM) in data set [2] (pH 2.2, aqueous buffer); 87 µg/mL (≈ 152 µM) in data set [2] (pH 4.5, aqueous buffer); 87 µg/mL (≈ 152 µM) in data set [2] (pH 6.8, aqueous buffer).

For the molecule `COc1c(C(=O)O)cnn1-c1cccc(-c2cccc(C)c2OCc2ccc3c(c2)CCN(CC2CC(F)(F)C2)C3)n1` [Compound 26], the “HLM (% Qh)” value in data set [1] was 29 % Qh. Moreover, the solubility at 24 h in data set [2] (pH 2.2, aqueous buffer) was 100 µg/mL (≈ 174 µM); in data set [2] (pH 4.5, aqueous buffer), 80 µg/mL (≈ 139 µM); in data set [2] (pH 6.8, aqueous buffer), 80 µg/mL (≈ 139 µM).

For `COc1c(C(=O)O)cnn1-c1cccc(-c2cccc(C)c2OCc2cc(C#N)c3c(c2)CCN(C2CCOCC2)C3)n1` [Compound 250], the “HLM (% Qh)” value in data set [1] is recorded as below 24 % Qh. Also, the solubility at 24 h came to 110 µg/mL (≈ 190 µM) in data set [2] (pH 2.2, aqueous buffer); 81 µg/mL (≈ 140 µM) in data set [2] (pH 4.5, aqueous buffer); 86 µg/mL (≈ 148 µM) in data set [2] (pH 6.8, aqueous buffer).

In the case of `COCC(C)N1CCc2cc(COc3c(C)cccc3-c3cccc(-n4ncc(C(=O)O)c4OC)n3)ccc2C1` (stereo not shown) [Compound 23], the “HLM (% Qh)” value in data set [1] was below 24 % Qh. Besides, the solubility at 24 h worked out at 99 µg/mL (≈ 182 µM) in data set [2] (pH 2.2, aqueous buffer); 79 µg/mL (≈ 146 µM) in data set [2] (pH 4.5, aqueous buffer); 82 µg/mL (≈ 151 µM) in data set [2] (pH 6.8, aqueous buffer).

As to `COc1c(C(=O)O)cnn1-c1cccc(-c2cccc(C)c2OCc2ccc3c(c2C)CCN([C@@H]2CCOC2)CC3)n1` [Compound 207], the “HLM (% Qh)” value in data set [1] is on record as below 24 % Qh. In addition, the solubility at 24 h in data set [2] (pH 2.2, aqueous buffer) came to 82 µg/mL (≈ 144 µM); in data set [2] (pH 4.5, aqueous buffer), 68 µg/mL (≈ 120 µM); in data set [2] (pH 6.8, aqueous buffer), 73 µg/mL (≈ 128 µM).

Turning to `CCOc1c(C(=O)O)cnn1-c1cccc(-c2cccc(C)c2OCc2cc(C)c3c(c2)CCN(CC2(C)COC2)C3)n1` [Compound 200], the “HLM (% Qh)” value in data set [1] is listed as 40 % Qh. Further, the solubility at 24 h was determined as 100 µg/mL (≈ 172 µM) in data set [2] (pH 2.2, aqueous buffer); 73 µg/mL (≈ 125 µM) in data set [2] (pH 4.5, aqueous buffer); 73 µg/mL (≈ 125 µM) in data set [2] (pH 6.8, aqueous buffer).

With `COc1c(C(=O)O)cnn1-c1cccc(-c2cccc(C)c2OCc2ccc3c(c2Cl)CCN(CC2(C)COC2)C3)n1` [Compound 19], the “HLM (% Qh)” value in data set [1] was 29 % Qh. Further, the solubility at 24 h amounted to 96 µg/mL (≈ 163 µM) in data set [2] (pH 2.2, aqueous buffer); 70 µg/mL (≈ 119 µM) in data set [2] (pH 4.5, aqueous buffer); 75 µg/mL (≈ 127 µM) in data set [2] (pH 6.8, aqueous buffer).

Regarding `COc1c(C(=O)O)cnn1-c1cccc(-c2cccc(C)c2OCc2ccc3c(c2)C(C)(C)CN(C2CCOC2)C3)n1` (stereo not shown) [Compound 217], the “HLM (% Qh)” value in data set [1] is listed as 89 % Qh. The solubility at 24 h in data set [2] (pH 2.2, aqueous buffer) was determined as 97 µg/mL (≈ 171 µM); in data set [2] (pH 4.5, aqueous buffer), 73 µg/mL (≈ 128 µM); in data set [2] (pH 6.8, aqueous buffer), 69 µg/mL (≈ 121 µM).

Regarding `COc1c(C(=O)O)cnn1-c1cccc(-c2cccc(C)c2OCc2ccc3c(c2C)CCN(C2CCOCC2)CC3)n1` [Compound 184], in data set [1], the “HLM (% Qh)” value is below 24 % Qh. The solubility at 24 h in data set [2] (pH 2.2, aqueous buffer) turned out to be 89 µg/mL (≈ 153 µM); in data set [2] (pH 4.5, aqueous buffer) it was 76 µg/mL (≈ 130 µM); in data set [2] (pH 6.8, aqueous buffer), 76 µg/mL (≈ 130 µM).

`COc1c(C(=O)O)cnn1-c1cccc(-c2cccc(C)c2OCc2ccc3c(c2C)CCN(C2CCCOC2)C3)n1` (stereo not shown) [Compound 238]: the “HLM (% Qh)” value in data set [1] is recorded as below 24 % Qh. Besides, the solubility at 24 h in data set [2] (pH 2.2, aqueous buffer) is 77 µg/mL (≈ 135 µM); in data set [2] (pH 4.5, aqueous buffer), 55 µg/mL (≈ 96.7 µM); in data set [2] (pH 6.8, aqueous buffer), 52 µg/mL (≈ 91.4 µM).

As to `CCOc1c(C(=O)O)cnn1-c1cccc(-c2cccc(C)c2OCc2ccc3c(c2C)CCN(C[C@H]2CCCCO2)C3)n1` [Compound 232], the “HLM (% Qh)” value in data set [1] is recorded as below 24 % Qh. In addition, the solubility at 24 h came out at 93 µg/mL (≈ 156 µM) in data set [2] (pH 2.2, aqueous buffer); 74 µg/mL (≈ 124 µM) in data set [2] (pH 4.5, aqueous buffer); 63 µg/mL (≈ 106 µM) in data set [2] (pH 6.8, aqueous buffer).
